Patent US8883480B2 (priority 2008, dated 2014)
Bridge positions count the residues as written; N and C are the ends. Peptide text beside a SMILES is read from it.

What was measured:
[1] = system: AIV H9N2; design: species or system avian influenza virus H9N2; details: in vivo
[2] = system: avian influenza virus H9N2; assay type: cell-based
[3] = target: Streptavidin (Streptomyces avidinii, UniProt P22629); assay type: binding
[4] = target: avian influenza virus (AIV) subtype H9N2, purified whole virus particles; assay: cell-based or functional assay

Sequence of Streptavidin (P22629 25-183, species assumed): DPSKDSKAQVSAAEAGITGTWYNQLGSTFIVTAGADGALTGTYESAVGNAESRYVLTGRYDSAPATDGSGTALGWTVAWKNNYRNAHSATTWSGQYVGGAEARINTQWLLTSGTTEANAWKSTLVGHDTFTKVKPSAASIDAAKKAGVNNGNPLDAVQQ

Row | Molecule | AIV titer in the allantoic fluid (haemagglutination titer) [1] | Agglutination of RBC (+AIV 32 HAU; 50 μl) [2] | Agglutination of RBC (−AIV 32 HAU; 50 μl) [2] | Frequency of sequences (%) [3] [%] | also measured
1 | C[C@@H](O)[C@@H]1NC(=O)[C@H](CCCCN)NC(=O)[C@H](CO)NC(=O)[C@H](CCCNC(=N)N)NC(=O)[C@H](Cc2ccccc2)NC(=O)[C@H](CC(=O)O)NC(=O)[C@H](CC(N)=O)NC(=O)[C@@H](N)CSSC[C@@H](C(=O)O)NC1=O [CNDFRSKTC] (H-CNDFRSKTC-OH; disulfide 1-9 (inferred); N-terminus and C-terminus assumed) | reduced the AIV titer | No and Yes | No | – | IC50 ([1]; read-out: IC50, inhibition of propagation of AIV H9N2): < 100 µM
2 | GLYNHPQ | – | – | – | 27 | –
3 | HPQFLSL | – | – | – | 55 | –
4 | NDFRSKT | reduced the AIV titer | No and Yes | No | – | –
5 | synthetic linear peptide NDFRSKT | – | – | – | – | IC50 [4]: < 100 µM
